According to publication PMC6022709 (BMC Research Notes, 2018):
Where two headings read alike, the source gives them in different places.

System: M. tuberculosis resistant isolates
Assay type: cell-based, Mycobacterium tuberculosis
Conditions: solid medium 7H10 with 10% v/v OADC, 3–4 weeks

Measured: MIC99

CC(C)CC1C(=O)N2NCCCC2C(=O)N2NCCCC2C(=O)N(C)C(Cc2ccccc2)C(=O)N2CCCC2C(=O)NC(Cc2ccccc2)C(=O)N1O (stereo not drawn) [Compound 1, cyclo[N-(Me)Phe-Pro-Phe-N-(OH)Leu-Piz-Piz]]
13 µM: strain LP-0458690-RM1
25 µM: strain LP-0458690-RM2 | strain LP-0458690-RM3 | strain LP-0458690-RM4 | strain LP-0458690-RM5 | strain LP-0458690-RM6

CC(C)CC1C(=O)N2NCCCC2C(=O)N2NCCCC2C(=O)N(C)C(Cc2ccccc2)C(=O)N2CCCC2C(=O)NC(C(C)C)C(=O)N1O (stereo not drawn) [Compound 3]
3.1 µM: strain LP-0458686-RM1 | strain LP-0458686-RM2 | strain LP-0458686-RM3
